According to patent publication US20110224232A1 (Board of Regents, The University of Texas System, priority 2008, published 2011):
Several values for one entry are separate records, joined by “and”; a condition that tells them apart may be missing. Equal values may be shown once.

How the values were obtained:
[1] = system: invasive pulmonary aspergillosis; conditions: high doses, 40 mg/kg per day; cited from earlier work
[2] = underivatized; cited from earlier work
[3] = system: Aspergillus fumigatus clinical isolate 293 (AF 293); experiment: Survival of A. fumigatus-infected immunosuppressed mice (Kaplan-Meier); assay type: in vivo; conditions: A. fumigatus-infected female ICR mice, VOR inhalation BID 30-40 mg/kg, AmB intraperitoneal QD 1 mg/kg
Excerpt: Conidia were harvested from Aspergillus fumigatus clinical isolate 293 (AF 293) cultures grown on potato dextrose agar (Hardy Diagnostics, Santa Maria, Calif.) by washing and scraping agar surfaces with 0.1% Tween 80 in sterile physiological saline and filtering through sterile glass wool. Conidia were re-suspended to achieve a final inoculum of ˜1×10^9 conidia/mL, as confirmed by hemocytometer counts and serial plating.
Mice were rendered immunosuppressed by intraperitoneal cyclophosphamide (250 mg/kg) and subcutaneous cortisone acetate (250 mg/kg) two days prior to inoculation (Day −2). Both cyclophosphamide (200 mg/kg intraperitoneal) and cortisone acetate (250 mg/kg subcutaneously) were re-administered on Day +3 following inoculation. Mice also received prophylactic antibiotic therapy of ceftazidime 50 mg/kg administered sub-cutaneously on Day −2 through Day +7.
To simulate pulmonary pathogenesis, mice were placed inside an acrylic chamber, and A. fumigatus conidia were introduced by aerosolizing the conidial suspension with a small particle nebulizer (Hudson Micro Mist, Hudson RCI, Temecula, Calif.) driven by compressed air. A standard exposure time of 1 hour was used to allow for complete aerosolization of the conidial suspension. Starting inocula were assessed by colony forming unit (CFU) enumeration from mice one hour post-inoculation.
The inhaled control group received 20 minute nebulizations of 100 mg/mL CAPTISOL® solutions BID beginning on Day −2 and continuing through Day +7. The intraperitoneal AmB group received 1 mg/kg Amphotericin B deoxycholate (Apothecon, Princeton, N.J.) by intraperitoneal injection (IP) once daily (QD) on Day +1 and continuing through Day +7 (FIG. 2).
Statistical analyses were conducted as follows. Survival was plotted by Kaplan-Meier analysis, and differences in median survival and percent survival between prophylaxis groups were analyzed by the log-rank test and chi-square test, respectively, using Prism version 4 software (GraphPad, San Diego, Calif.). […] A p-value of ≦0.05 was considered statistically significant for all comparisons.

Aspergillus fumigatus [4] = experiment: Pulmonary fungal burden by colony forming units in infected mice; assay type: in vivo
Experimental: (§1) Mice were monitored for an additional 5 days following discontinuation of treatment. Animals that appeared moribund prior to the end of the study were euthanized by halothane and death was recorded as occurring the next day. 12 mice were randomly selected from each group and euthanized on Day +8 for fungal burden analysis while any remaining mice were euthanized on Day +12. 2 additional mice were randomly selected from each group and euthanized on Day +8 and Day +12 for histological analysis
Lungs were homogenized in sterile saline (total volume 2 mL) supplemented with gentamicin and chloramphenicol using a tissue homogenizer (Polytron Dispensing and Mixing Technology PT 2100, Kinematica, Cincinnati, Ohio). Serial dilutions were prepared in sterile saline and plated in duplicate onto potato dextrose agar. Following 24 hours of incubation at 37° C., colonies were enumerated and colony forming units (CFU) per gram of lung tissue for each animal were calculated.
(§2) Statistical analyses were conducted as follows. Survival was plotted by Kaplan-Meier analysis, and differences in median survival and percent survival between prophylaxis groups were analyzed by the log-rank test and chi-square test, respectively, using Prism version 4 software (GraphPad, San Diego, Calif.). Differences in fungal burden endpoints (CFU/g and CE) were assessed for significance by analysis of variance with Tukey's post-test for multiple comparisons. A p-value of ≦0.05 was considered statistically significant for all comparisons.

Aspergillus fumigatus [5] = experiment: Pulmonary fungal burden by real-time quantitative PCR (conidial equivalents) in infected mice; assay type: in vivo; conditions: Day + 8 per table footnote
Experimental: as §1
Pulmonary fungal burden was also quantified by real-time quantitative polymerase chain reaction (qPCR) using previously described methods. Briefly, DNA was extracted from […] of lung homogenate with the use of a commercially available kit (DNeasy Tissue Kit, Qiagen, Valencia, Calif.) according to the manufacturer's instructions. DNA samples were analyzed in duplicate with the use of the ABI PRISM 7300 sequence-detection system (Applied Biosystems, Foster City, Calif.) with primers and dual-labeled fluorescent hybridization probes specific for the A. fumigatus 1,3-β-glucan synthase (FKS) gene (GenBank accession number U79728). The threshold cycle (Ct) of each sample was interpolated from a six-point standard curve generated by spiking naive mouse lungs with known amounts of conidia (102 to 107). An internal standard was amplified in separate reactions to correct for differences in DNA recovery. The resulting data was expressed as conidial equivalents (CE).
as §2

A. fumigatus = experiment: Lung histopathology, pulmonary lesion counts in A. fumigatus-infected mice; assay type: in vivo, Aspergillus fumigatus
Experimental: Histopathological changes in lung tissue were evaluated and compared for four mice in each of the inhaled voriconazole, inhaled control, and intraperitoneal AmB groups. The inhaled control was aerosolized CAPTISOL® at a concentration of 100 mg/mL over 20 minutes. On day 8 post inoculation, animals were euthanized using halothane and 10% volume/volume formaldehyde was instilled into the lungs via the trachea. Lungs were then harvested and placed into 10% volume/volume formaldehyde. Tissue was fixed in formaldehyde for an adequate period of time followed by processing and embedding into paraffin wax. Coronal sections of the entire lung were obtained at a thickness of 4-6 μm and mounted on slides. Sections were stained with hematoxylin and eosin and viewed by light microscopy with a Zeiss AxioVision Imager at 10× magnification. Two investigators were blinded and independently evaluated each lung section. The extent of lung damage caused by invasive hyphae was recorded and quantified by counting and normalizing the number of gross lesions.
Normalization of the histopathology results was achieved by using the number of lung pieces (sections) on the slide as a denominator. The total number of lesions on the slide were counted and then divided by the number of pieces of tissue on that slide. This was done because the number of pieces of tissue per slide (again, all from the same cut of lung from the same animal) ranged from 4 to 9. For example, the normalized number of lesions would be 0.4 if 2 lesions were observed on a slide with 5 lung pieces. Similarly, the normalized value would be 0.14 if 1 lesion was observed on a slide with 7 lung pieces.

[6] = normalized lesions, listed as AmB

Compound: CC[C@@H]([C@H](C)O)n1ncn(-c2ccc(N3CCN(c4ccc(OC[C@@H]5CO[C@@](Cn6cncn6)(c6ccc(F)cc6F)C5)cc4)CC3)cc2)c1=O [posaconazole]
- fungal burden as measured by quantitative real-time PCR [1]: significant reductions in fungal burden

Compound: OC[C@H]1O[C@@H]2O[C@H]3[C@H](O)[C@@H](O)[C@@H](O[C@H]4[C@H](O)[C@@H](O)[C@@H](O[C@H]5[C@H](O)[C@@H](O)[C@@H](O[C@H]6[C@H](O)[C@@H](O)[C@@H](O[C@H]7[C@H](O)[C@@H](O)[C@@H](O[C@H]1[C@H](O)[C@H]2O)O[C@@H]7CO)O[C@@H]6CO)O[C@@H]5CO)O[C@@H]4CO)O[C@@H]3CO [α-CD]
- water solubility at saturation [2]: about 14.5 % w/w

Compound: Amphotericin B deoxycholate
- Percent Survival ([3]; to Day +12): 23.1%
- Median Survival [3]: 7 days
- A - Day 8 Fungal Burden Determined by CFU, Mean (Aspergillus fumigatus [4]; Day +8): 4.37 log10 CFU
- A - Day 8 Fungal Burden Determined by CFU, Median (Aspergillus fumigatus [4]; Day +8): 4.33 log10 CFU
- A - Day 8 Fungal Burden Determined by CFU, Range (Aspergillus fumigatus [4]; Day +8): (3.59-5.07) log10 CFU
- B - Fungal Burden Determined by CFU for All Mice, Mean (Aspergillus fumigatus [4]; all samples, day 8 and day 12): 4.22 log10 CFU
- B - Fungal Burden Determined by CFU for All Mice, Median (Aspergillus fumigatus [4]; all samples, day 8 and day 12): 4.33 log10 CFU
- B - Fungal Burden Determined by CFU for All Mice, Range (Aspergillus fumigatus [4]; all samples, day 8 and day 12): (3.24-5.07) log10 CFU
- C - Conidial Equivalents Determined by qPCR, Mean (Aspergillus fumigatus [5]): 4.89 log10 conidial equivalents
- C - Conidial Equivalents Determined by qPCR, Median (Aspergillus fumigatus [5]): 4.95 log10 conidial equivalents
- C - Conidial Equivalents Determined by qPCR, Range (Aspergillus fumigatus [5]): (4.49-5.38) log10 conidial equivalents
- D - Conidial Equivalents per Gram of Lung Tissue Determined by Qpcr, Mean (Aspergillus fumigatus [5]; normalized for wet lung weight): 5.50 log10 conidial equivalents per
- D - Conidial Equivalents per Gram of Lung Tissue Determined by Qpcr, Median (Aspergillus fumigatus [5]; normalized for wet lung weight): 5.57 log10 conidial equivalents per
- D - Conidial Equivalents per Gram of Lung Tissue Determined by Qpcr, Range (Aspergillus fumigatus [5]; normalized for wet lung weight): (5.09-5.88) log10 conidial equivalents per
- lung histopathology findings (in words) (A. fumigatus; A. fumigatus-infected mice, aerosolized voriconazole, intraperitoneal amphotericin B): marked pulmonary disease, including necrosis and the presence of invasive hyphae, was observed
- pulmonary lesions normalized for the number of lung tissue pieces per slide, Mean (A. fumigatus; normalized lesions): 0.6
- pulmonary lesions normalized for the number of lung tissue pieces per slide, 25th Percentile (A. fumigatus; [6]): 0.13 and 0.1
- pulmonary lesions normalized for the number of lung tissue pieces per slide, 75th Percentile (A. fumigatus; [6]): 1.31 and 1.3
- pulmonary lesions normalized for the number of lung tissue pieces per slide, Maximum (A. fumigatus; [6]): 1.6
- pulmonary lesions normalized for the number of lung tissue pieces per slide, Median (A. fumigatus; [6]): 0.28 and 0.3
- pulmonary lesions normalized for the number of lung tissue pieces per slide, Minimum (A. fumigatus; [6]): 0.13 and 0.1
- pulmonary lesions in all available histological samples, 25th Percentile (A. fumigatus; number of lesions): 1.0
- pulmonary lesions in all available histological samples, 75th Percentile (A. fumigatus; number of lesions): 6.8
- pulmonary lesions in all available histological samples, Maximum (A. fumigatus; number of lesions): 8.0
- pulmonary lesions in all available histological samples, Mean (A. fumigatus; number of lesions): 3.3
- pulmonary lesions in all available histological samples, Median (A. fumigatus; number of lesions): 2.0
- pulmonary lesions in all available histological samples, Minimum (A. fumigatus; number of lesions): 1.0
